Assay results reported in publication PMC7811009, “Oxytocin modulates local topography of human functional connectome in healthy men at rest” (Communications Biology, 2021).

Key:
[1] = test system: human functional connectome at rest; experiment: Resting-state BOLD-fMRI, graph theory: global efficiency (macroscale); 40 IU intranasal (spray/nebuliser) or 10 IU intravenous, about 57 min post-dosing, 16 healthy men; assay type: in vivo; conditions: repeated measures one-way ANOVA, F (1.932, 28.980) = 0.568, p = 0.567
Method: Each experimental session began with the treatment administration protocol that lasted about 22 min in total (Fig. 8, lower panel). After drug administration, participants were guided to the MRI scanner, where eight pulsed continuous arterial spin labelling scans (each lasting approx. eight minutes) were acquired, spanning 15–104 min post-dosing (data reported elsewhere[11]). The 8-min resting state BOLD-fMRI scan reported herein was obtained at about 57 ± 3.38 min post-dosing. Participants were instructed to lie still and maintain their gaze on a centrally placed fixation cross during scanning. We assessed participants’ levels of alertness (anchors: alert-drowsy) and excitement (anchors: excited-calm) using visual analogue scales (0–100) at three different time-points during the scanning session to evaluate subjective drug effects across time (data reported elsewhere[11]).
MRI data were acquired on a 3 T MR750 system (GE Healthcare, Waukesha, Wisconsin) with a 32-channel head coil. Functional data was acquired using a shot multi-echo echo planar imaging (EPI) sequence (TR = 2500 ms, TE’s = 12, 28, 44 and 60 ms, FA = 80°, FOV = 240 × 240 mm^2, Matrix = 64 × 64, Slice thickness = 3 mm, 32 continuous descending axial slices, resolution = 3.75 × 3.75 × 3 mm). […] The resting state fMRI scan lasted 8 min 10 s, with collection of a total of 192 volumes for each echo. […]

[2] = test system: human functional connectome at rest; experiment: Resting-state BOLD-fMRI: network edges (microscale), FDR and Network Based Statistics; assay type: in vivo
Source text: We used the CONN functional connectivity toolbox[97] to generate brain-wide functional connectivity matrices for each subject/session. […] The default atlas of the CONN toolbox includes 132 non-overlapping ROIs spanning cortical and subcortical areas and the cerebellum using a combination of the cortical and subcortical areas from the FSL Harvard-Oxford atlas and of the cerebellar areas of the Automatic Anatomical Labelling atlas (Supplementary data 1 for a detailed description). […] Finally, we normalized our correlation measures to z-scores using the Fisher’s r-z transform per subject/session.
We did so by examining treatment-related changes in mean connectivity and global efficiency of the whole-brain network (macroscale), graph properties of regional connectivity at the node level (mesoscale) and individual connections between pairs of nodes (microscale). These analyses were performed using repeated measures one-way analysis of variance, implemented in Matlab 2016. When a significant effect was found, we followed up with post-hoc paired t-tests between each pair of the four treatment conditions, using FDR correction for multiple testing.
Microscale. We performed two different analyses to investigate treatment-related changes on each individual edge of the connectivity matrices. […]

[3] = test system: amygdala/parahippocampal gyrus and anterior cingulate; conditions: same dose of intravenous oxytocin (10 IU), same cohort; cited from earlier work
Source text: Our second key finding was the observation that the regional effects of exogenous oxytocin, compared to placebo, vary as a function of the route/method of administration. Particularly striking was the observation that the intravenous administration of oxytocin induced widespread changes in regional functional connectivity across many areas potentially relevant to explaining the effects of intranasal oxytocin on human behaviour and which have been classically ascribed to direct nose-to-brain transport. One of these areas is the amygdala, where we found decreased betweenness-centrality after int ...

CC[C@H](C)[C@@H]1NC(=O)[C@H](Cc2ccc(O)cc2)NC(=O)[C@@H](N)CSSC[C@@H](C(=O)N2CCC[C@H]2C(=O)N[C@@H](CC(C)C)C(=O)NCC(N)=O)NC(=O)[C@H](CC(N)=O)NC(=O)[C@H](CCC(N)=O)NC1=O [oxytocin]
Differences in global efficiency across the four treatment conditions [1]: no significant differences | Connectivity of individual edges across the four treatment conditions ([2]; FDR correction for the number of edges): did not find any individual edge where the four treatment conditions differed in connectivity | Connectivity of subnetworks across the four treatment conditions ([2]; NBS, irrespective of the primary threshold used): did not identify any subnetwork where the four treatment conditions differed on connectivity | Effect on rCBF [3]: decreases rCBF in the amygdala/parahippocampal gyrus and in the anterior cingulate
